Legend:
LNCaP tumor-bearing mice = test: Endoradiotherapy study; assay type: in vivo; conditions: for Median survival: n=8
Description: (§1) SPECT/CT imaging and biodistribution were performed using NOD-scid IL2Rgammanu^null (NSG) male mice, and the endoradiotherapy study was conducted using NOD.Cg-Rag1^tm1MomII2rg^tm1WjI/SzJ (NRG) male mice. The mice were maintained and the experiments were conducted in according to the guidelines established by the Canadian Council on Animal Care and approved by Animal Ethics Committee of the University of British Columbia. Mice were anesthetized by inhalation with 2% isoflurane in oxygen, and implanted subcutaneously with 1×10^7 LNCaP cells posterior to the left shoulder. Mice were used for studies when the tumor reached 5-8 mm in diameter 5-6 weeks after inoculation.
For radiotherapy study, tumor-bearing mice were injected with saline (the control group), ^177Lu-PSMA-617 (18.5 MBq) or ^177Lu-HTK01169 (18.5, 9.3, 4.6, or 2.3 MBq) (n=8 per group). Tumor size and body weight were measured twice a week from the date of injection (Day 0) until completion of the study (Day 120). Endpoint criteria were defined as >20% weight loss, tumor volume >1000 mm^3, or active ulceration of the tumor.

[1] = tested on: mice bearing LNCaP xenografts; test: Biodistribution of 177Lu-labeled compounds; assay type: in vivo
Description: 1.17 SPECT/CT Imaging, Biodistribution and Endoradiotherapy Studies
as §1
For biodistribution studies, the mice were injected with ^177Ludabeled PSMA-617 or HTK01169 (2-4 MBq) as described above. At predetermined time points (1, 4, 24, 72, or 120 h post-injection), the mice were euthanized by CO2 inhalation. Blood was withdrawn immediately from the heart, and the organs/tissues of interest were collected. The collected organs/tissues were weighed and counted using an automated gamma counter. For the blocking study, mice were co-injected with ^177Lu-HTK01169 (2-4 MBq) and 50 nmol of the non-radioactive standard, and organs/tissues of interest were collected at 4 h post-injection.

human serum = test: Plasma protein binding assay; assay type: in vitro ADME; conditions: for filter-bound radioactivity: n=3
Description: 1.16 Plasma Protein Binding Assay
Plasma protein binding assays were performed according to literature methods.^19 Briefly, 37 kBq of ^177Lu-PSMA-617 or ^177Lu-HTK01169 in 50 μL PBS was added into 200 μL human serum and the mixture was incubated at room temperature for […]. The mixture was then loaded onto a membrane filter (Nanosep®, 30 K, Pall Corporation, USA) and centrifuged for 45 min (30,130×g). Saline (50 μL) was added and centrifugation was continued for another 15 min. The top part with the membrane filter and the bottom part with the solution were counted on a gamma counter. For control, saline was used in place of human serum.

[2] = 4 h post-injection, blocking (co-injection of 50 nmol non-radioactive standard)

## O=C([O-])CN1CCN(CC(=O)[O-])CCN(CC(=O)NCCCC[C@H](NC(=O)[C@H](CCC(=O)O)NC(=O)CCCc2ccc(I)cc2)C(=O)NC[C@H]2CC[C@H](C(=O)N[C@@H](Cc3ccc4ccccc4c3)C(=O)NCCCC[C@H](NC(=O)N[C@@H](CCC(=O)O)C(=O)O)C(=O)O)CC2)CCN(CC(=O)[O-])CC1.[177Lu+3] [^177Lu-HTK01169]
LNCaP tumor-bearing mice; 2.3-18.5 MBq
  change of tumor size over time, dependence on injected radioactivity: higher radioactivity leading to more effective and prolonged tumor growth inhibition
LNCaP tumor-bearing mice; 2.3 MBq injected
  Median survival: 28 days
LNCaP tumor-bearing mice; 4.6 MBq injected
  Median survival: 61 days
LNCaP tumor-bearing mice; 9.3 MBq injected
  Median survival: 103 days
LNCaP tumor-bearing mice; 18.5 MBq
  survival until end of study (Day 120): survived until the end of the study
LNCaP tumor-bearing mice; 18.5 MBq injected
  Median survival: >120 days
LNCaP tumor-bearing mice; mouse, in vivo
  administered activity needed for similar treatment efficacy, relative to 177Lu-PSMA-617: only a quarter
[1]; 1 h post-injection
  Adrenal glands uptake: 9.94 ± 2.10 % ID/g
  Blood uptake: 16.6 ± 1.85 % ID/g
  Bone uptake: 0.93 ± 0.31 % ID/g
  Brain uptake: 0.18 ± 0.07 % ID/g
  Fat uptake: 3.20 ± 1.03 % ID/g
  Heart uptake: 3.93 ± 0.95 % ID/g
  Intestine uptake: 1.64 ± 0.20 % ID/g
  Kidneys uptake: 51.1 ± 4.07 % ID/g
  Liver uptake: 2.55 ± 0.45 % ID/g
  Lung uptake: 7.11 ± 0.98 % ID/g
  Muscle uptake: 1.39 ± 0.12 % ID/g
  Pancreas uptake: 1.77 ± 0.24 % ID/g
  Seminal uptake: 1.02 ± 0.15 % ID/g
  Spleen uptake: 10.6 ± 4.07 % ID/g
  Stomach uptake: 0.50 ± 0.15 % ID/g
  Testes uptake: 2.14 ± 0.31 % ID/g
  Tumor uptake: 13.4 ± 3.26 % ID/g
  Tumor/blood ratio: 0.81 ± 0.18
  Tumor/kidney ratio: 0.26 ± 0.05
  Tumor/muscle ratio: 9.76 ± 2.65
[1]; 4 h post-injection
  Adrenal glands uptake: 9.91 ± 2.55 % ID/g
  Blood uptake: 10.2 ± 1.40 % ID/g
  Bone uptake: 0.79 ± 0.30 % ID/g
  Brain uptake: 0.16 ± 0.01 % ID/g
  Fat uptake: 2.95 ± 0.81 % ID/g
  Heart uptake: 2.50 ± 0.54 % ID/g
  Intestine uptake: 1.25 ± 0.17 % ID/g
  Kidneys uptake: 85.7 ± 7.11 % ID/g
  Liver uptake: 1.97 ± 0.05 % ID/g
  Lung uptake: 5.92 ± 0.22 % ID/g
  Muscle uptake: 0.98 ± 0.06 % ID/g
  Pancreas uptake: 1.51 ± 0.28 % ID/g
  Seminal uptake: 1.07 ± 0.62 % ID/g
  Spleen uptake: 8.05 ± 3.62 % ID/g
  Stomach uptake: 0.57 ± 0.11 % ID/g
  Testes uptake: 1.91 ± 0.63 % ID/g
  Tumor/blood ratio: 2.71 ± 0.68
  Tumor/kidney ratio: 0.32 ± 0.07
  Tumor/muscle ratio: 28.0 ± 6.92
[1]; [2]
  Adrenal glands uptake: 0.68 ± 0.24 % ID/g
  Blood uptake: 0.96 ± 0.25 % ID/g
  Bone uptake: 0.12 ± 0.04 % ID/g
  Brain uptake: 0.03 ± 0.00 % ID/g
  Fat uptake: 0.25 ± 0.13 % ID/g
  Heart uptake: 0.41 ± 0.07 % ID/g
  Intestine uptake: 0.25 ± 0.10 % ID/g
  Kidneys uptake: 5.50±1.95 % ID/g
  Liver uptake: 0.51 ± 0.08 % ID/g
  Lung uptake: 0.89 ± 0.29 % ID/g
  Muscle uptake: 0.12 ± 0.02 % ID/g
  Pancreas uptake: 0.19 ± 0.02 % ID/g
  Seminal uptake: 0.19 ± 0.13 % ID/g
  Spleen uptake: 0.61 ± 0.17 % ID/g
  Stomach uptake: 0.19 ± 0.10 % ID/g
  Testes uptake: 0.58 ± 0.14 % ID/g
  Tumor uptake: 1.70±0.28 % ID/g
  Tumor/blood ratio: 1.81 ± 0.31
  Tumor/kidney ratio: 0.32 ± 0.06
  Tumor/muscle ratio: 13.7 ± 1.47
[1]; 24 h post-injection
  Adrenal glands uptake: 4.53 ± 1.10 % ID/g
  Blood uptake: 2.10 ± 0.41 % ID/g
  Bone uptake: 0.26 ± 0.05 % ID/g
  Brain uptake: 0.06 ± 0.01 % ID/g
  Fat uptake: 2.06 ± 0.71 % ID/g
  Heart uptake: 0.83 ± 0.25 % ID/g
  Intestine uptake: 0.45 ± 0.13 % ID/g
  Kidneys uptake: 125 ± 16.4 % ID/g
  Liver uptake: 1.03 ± 0.22 % ID/g
  Lung uptake: 1.98 ± 0.44 % ID/g
  Muscle uptake: 0.39 ± 0.07 % ID/g
  Pancreas uptake: 0.59 ± 0.12 % ID/g
  Seminal uptake: 0.36 ± 0.13 % ID/g
  Spleen uptake: 3.70 ± 1.67 % ID/g
  Stomach uptake: 0.34 ± 0.12 % ID/g
  Testes uptake: 1.19 ± 0.23 % ID/g
  Tumor uptake: 55.9±12.5 % ID/g
  Tumor/blood ratio: 26.7 ± 2.79
  Tumor/kidney ratio: 0.45 ± 0.13
  Tumor/muscle ratio: 142 ± 14.4
[1]; 72 h post-injection
  Adrenal glands uptake: 1.65 ± 0.46 % ID/g
  Blood uptake: 0.28 ± 0.10 % ID/g
  Bone uptake: 0.11 ± 0.03 % ID/g
  Brain uptake: 0.03 ± 0.00 % ID/g
  Fat uptake: 1.34 ± 0.72 % ID/g
  Heart uptake: 0.28 ± 0.04 % ID/g
  Intestine uptake: 0.13 ± 0.06 % ID/g
  Kidneys uptake: 37.8 ± 18.7 % ID/g
  Liver uptake: 0.46 ± 0.12 % ID/g
  Lung uptake: 0.51 ± 0.17 % ID/g
  Muscle uptake: 0.11 ± 0.02 % ID/g
  Pancreas uptake: 0.15 ± 0.02 % ID/g
  Seminal uptake: 0.12 ± 0.04 % ID/g
  Spleen uptake: 1.13 ± 0.32 % ID/g
  Stomach uptake: 0.17 ± 0.12 % ID/g
  Testes uptake: 0.62 ± 0.11 % ID/g
  Tumor uptake: 53.6 ± 8.06 % ID/g
  Tumor/blood ratio: 204 ± 63.5
  Tumor/kidney ratio: 1.63 ± 0.58
  Tumor/muscle ratio: 519 ± 91.5
[1]; 120 h post-injection
  Adrenal glands uptake: 0.65 ± 0.21 % ID/g
  Blood uptake: 0.06 ± 0.03 % ID/g
  Bone uptake: 0.08 ± 0.01 % ID/g
  Brain uptake: 0.03 ± 0.00 % ID/g
  Fat uptake: 0.73 ± 0.13 % ID/g
  Heart uptake: 0.16 ± 0.07 % ID/g
  Intestine uptake: 0.10 ± 0.06 % ID/g
  Kidneys uptake: 8.63 ± 2.51 % ID/g
  Liver uptake: 0.34 ± 0.23 % ID/g
  Lung uptake: 0.17 ± 0.04 % ID/g
  Muscle uptake: 0.04 ± 0.01 % ID/g
  Pancreas uptake: 0.07 ± 0.02 % ID/g
  Seminal uptake: 0.08 ± 0.04 % ID/g
  Spleen uptake: 1.18 ± 0.55 % ID/g
  Stomach uptake: 0.21 ± 0.20 % ID/g
  Testes uptake: 0.40 ± 0.05 % ID/g
  Tumor uptake: 56.4±13.2 % ID/g
  Tumor/blood ratio: 1146 ± 722
  Tumor/kidney ratio: 7.12 ± 3.11
  Tumor/muscle ratio: 1708 ± 718
[1]; LNCaP tumor xenografts
  fold higher peak tumor uptake than 177Lu-PSMA-617: 3.7 fold
[1]; mouse, in vivo
  blood clearance (qualitative): relatively slower than ^177Lu-PSMA-617
[1]; peak over 1-120 h
  peaked tumor uptake: 55.9±12.5 % ID/g
Human serum; human serum
  free radioligand: < 1%
Human serum; incubated with human serum
  filter-bound radioactivity: 99.2±0.02%
Human serum; incubated with saline (control)
  filter-bound radioactivity: 25.8±3.42%
